Test results taken from patent US20190136254A1, “ALS Inhibitor Herbicide Tolerant Mutant Plants” (BASF SE, priority 2013, published 2019).
Substitutions are numbered along the chain they refer to. Numbers in names are those of the source.

How the values were obtained:
[1] = target: AHAS protein comprising the P197S mutation (Arabidopsis thaliana, UniProt P17597, P197S); assay: biochemical
Protocol: (§1) Bacteria are grown at 37° C. in LB-medium containing 100 mg/l carbenicillin and 25 mg/l canamycin, induced with 1 mM isopropyl-β-D-thiogalactopyranoside at an OD600 of 0.6, cultivated for 16 hours at 18° C. and harvested by, e.g., centrifugation. Bacterial pellets are resuspended in 100 mM sodium phosphate buffer pH 7.0 containing 0.1 mM thiamine-pyrophosphate, 1 mM MgCl2, and 1 μM FAD at a concentration of 1 gram wet weight per 25 ml of buffer and disrupted by, e.g., sonification. The crude protein extract obtained after centrifugation is used for ALS activity measurements.
(§2) ALS protein can be extracted from leaves or tissue cultures, such as B. napus or B. juncea leaves, or B. napus or B. juncea tissue cultures as described by Ray (Plant Physiol, 1984, 75:827-831). An ALS assays can be carried out in 96-well microtiter plates using a modification of the procedure described by Ray (1984): The reaction mixture contains 20 mM potassium phosphate buffer pH 7.0, 20 mM sodium pyruvate, 0.45 mM thiamine-pyrophosphate, 0.45 mM MgCl2, 9 μM FAD. ALS enzyme and various concentrations of ALS inhibitors can be mixed in a final volume of 90 μl. Assays can be initiated by adding enzyme and the assays can be terminated after 75 min incubation at 30° C. by the addition of 40 μl 0.5 M H2SO4.

AHAS protein WT = AHAS protein WT (Arabidopsis thaliana, UniProt P17597); assay: biochemical
Sequence of AHAS protein WT (P17597 56-670): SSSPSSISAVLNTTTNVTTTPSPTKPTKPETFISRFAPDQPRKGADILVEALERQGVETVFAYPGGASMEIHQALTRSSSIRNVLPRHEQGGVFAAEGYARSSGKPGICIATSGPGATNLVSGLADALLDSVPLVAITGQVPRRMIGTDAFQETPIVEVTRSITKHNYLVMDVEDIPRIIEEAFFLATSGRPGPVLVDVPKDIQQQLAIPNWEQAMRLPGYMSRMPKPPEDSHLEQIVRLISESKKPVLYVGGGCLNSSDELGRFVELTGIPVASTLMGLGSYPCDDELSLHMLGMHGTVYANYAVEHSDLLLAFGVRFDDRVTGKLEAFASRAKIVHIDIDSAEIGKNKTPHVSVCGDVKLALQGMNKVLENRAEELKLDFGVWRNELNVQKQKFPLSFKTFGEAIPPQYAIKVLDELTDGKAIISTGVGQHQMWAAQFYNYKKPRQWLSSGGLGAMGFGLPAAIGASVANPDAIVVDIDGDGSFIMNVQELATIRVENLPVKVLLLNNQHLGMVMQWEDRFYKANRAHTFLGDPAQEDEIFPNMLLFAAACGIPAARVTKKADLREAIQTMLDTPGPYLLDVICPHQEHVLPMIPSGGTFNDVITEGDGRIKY
Protocol: as §1, §2

[2] = target: AHAS protein comprising the W574L mutation (Arabidopsis thaliana, UniProt P17597, W574L); assay: biochemical
Sequence of AHAS protein comprising the W574L mutation (P17597 56-670 W574L): as the sequence (P17597 56-670) above, with W519L counted along it
Protocol: as §1, §2

[3] = target: mixture of two ALS proteins, one comprising the P197S and the other the W574L mutation (Arabidopsis thaliana, UniProt P17597, P197S/W574L); assay: biochemical
Sequence of mixture of two ALS proteins, one comprising the P197S and the other the W574L mutation (P17597 56-670 P197S/W574L): as the sequence (P17597 56-670) above, with P142S, W519L counted along it

[4] = tested on: Brassica napus hypocotyl derived callus; assay: Selection of hypocotyl derived callus on medium containing Foramsulfuron; format: cell-based
Protocol: Five day old seedlings were used for the preparation of hypocotyl segments 7-10 mm in length. Hypocotyl segments were transferred to 14 cm Petri plates containing 75 ml of M-338 [H76] callus induction medium (25 explants/plate). M-338 [H76] medium is MS salts and vitamins (Murashige and Skoog, 1962), 20 g/l sucrose, 0.5 g/l MES, 0.5 g/l adenine sulphate, 5 mg/l silver nitrate, 0.5 mg/l 2,4-D, 0.2 mg/l kinetin and solidified with 5.5 g/l agarose (pH 5.7). Dishes were sealed and cultured at 24° C. with standard light conditions (16 h/day). After 3 weeks, calli developing at the ends of the explants were transferred to fresh M-338 [H76] plates (25 calli/plate). Calli were subcultured to fresh medium every 3 weeks (larger calli cut into two pieces).
Hypocotyl derived callus (9 weeks old) was used for the selection of herbicide resistant mutants. Small pieces of callus were plated on M-338 [H76] medium containing 25 nM of the ALS inhibitor Foramsulfuron (CAS RN 173159-57-4). […] Dishes were cultured at 24° C. with standard light conditions (16 h/day). After 3 weeks, the calli were divided into 2 pieces each and replated on M-338 [H76] medium containing 50 nM Foramsulfuron. […]

[5] = target: AHAS protein comprising both the P197S and W574L mutation in one ALS protein (Arabidopsis thaliana, UniProt P17597, P197S/W574L); format: biochemical; details: both mutations in one ALS protein
Sequence of AHAS protein comprising both the P197S and W574L mutation in one ALS protein (P17597 56-670 P197S/W574L): as the sequence (P17597 56-670) above, with P142S, W519L counted along it
Protocol: as §1, §2

[6] = Kinetic parameters of enzymatic activity of AHAS proteins; format: biochemical; details: enzymatic activity of the AHAS protein
Protocol: The ALS inhibitor sensitivity and kinetic parameters of AHAS proteins comprising the P197S mutation, the W574L mutation, and both the P197S and W574L mutation in one ALS protein, were determined essentially as described in WO 2013/127766. ALS inhibitor sensitivity of a mixture of two ALS proteins, one of which comprising the P197S and the other comprising the W574L mutations were calculated as described in WO 2013/127766.

Sequence of AHAS protein comprising the P197S mutation (P17597 56-670 P197S): as the sequence (P17597 56-670) above, with P142S counted along it

COc1cc(OC)nc(NC(=O)NS(=O)(=O)c2cc(NC=O)ccc2C(=O)N(C)C)n1 [Foramsulfuron, foramsulfuron]
IC50 [1]: 0.1 µM
Resistance Factor P197S ([1]; AHAS P197S relative to WT): 12
IC50 (AHAS protein WT): 0.00794 µM
IC50 [2]: 50.1 µM
Resistance Factor W574L ([2]; AHAS W574L relative to WT): 5888
IC50 [3]: 2.51 µM
Resistance Factor P197S & W574L (mixture) ([3]; calculated mixture of two ALS proteins, relative to WT): 398
effect on callus growth ([4]; 25 nM in M-338 [H76] medium, 9 weeks old hypocotyl derived callus): partially inhibitory to callus growth but not lethal
effect on WT tissues ([4]; 250 nM in M-338 [H76] medium): clearly inhibitory to WT tissues
pI50 P197S-W574L (in one protein) [5]: <4
Resistance Factor P197S-W574L (in one protein) ([5]; relative to WT): >11748

B1: P197S: AHAS protein comprising the P197S mutation (protein, listed as Arabidopsis thaliana)
chain: MAAATTTTTTSSSISFSTKPSPSSSKSPLPISRFSLPFSLNPNKSSSSSRRRGIKSSSPSSISAVLNTTTNVTTTPSPTKPTKPETFISRFAPDQPRKGADILVEALERQGVETVFAYPGGASMEIHQALTRSSSIRNVLPRHEQGGVFAAEGYARSSGKPGICIATSGPGATNLVSGLADALLDSVPLVAITGQVSRRMIGTDAFQETPIVEVTRSITKHNYLVMDVEDIPRIIEEAFFLATSGRPGPVLVDVPKDIQQQLAIPNWEQAMRLPGYMSRMPKPPEDSHLEQIVRLISESKKPVLYVGGGCLNSSDELGRFVELTGIPVASTLMGLGSYPCDDELSLHMLGMHGTVYANYAVEHSDLLLAFGVRFDDRVTGKLEAFASRAKIVHIDIDSAEIGKNKTPHVSVCGDVKLALQGMNKVLENRAEELKLDFGVWRNELNVQKQKFPLSFKTFGEAIPPQYAIKVLDELTDGKAIISTGVGQHQMWAAQFYNYKKPRQWLSSGGLGAMGFGLPAAIGASVANPDAIVVDIDGDGSFIMNVQELATIRVENLPVKVLLLNNQHLGMVMQWQDRFYKANRAHTFLGDPAQEDEIFPNMLLFAAACGIPAARVTKKADLREAIQTMLDTPGPYLLDVICPHQEHVLPMIPSGGTFNDVITEGDGRIKY
Km [6]: 5.5 mM
Vmax [6]: 50.0 deltaOD550/min mg protein

B2: W574L: AHAS protein comprising the W574L mutation (protein, listed as Arabidopsis thaliana)
chain: B1 chain with S197P, W574L
Km [6]: 7 mM
Vmax [6]: 54.4 deltaOD550/min mg protein

B3: P197S-W574L (in one protein): AHAS protein comprising both the P197S and W574L mutation in one ALS protein (protein, listed as Arabidopsis thaliana)
chain: B1 chain with W574L
Km [6]: 31.5 mM
Vmax [6]: 87.7 deltaOD550/min mg protein
